Molecular target: T1, GGCT (Homo sapiens, UniProt O75223)
T1 sequence (O75223 1-188): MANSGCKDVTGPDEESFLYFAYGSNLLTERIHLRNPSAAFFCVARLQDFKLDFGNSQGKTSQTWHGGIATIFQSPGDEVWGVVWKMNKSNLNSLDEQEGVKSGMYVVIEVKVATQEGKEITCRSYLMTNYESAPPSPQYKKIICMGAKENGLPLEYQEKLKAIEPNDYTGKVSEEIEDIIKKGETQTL
Test: thin layer chromatography, ninhydrin
Format: biochemical
Conditions: glycine release

`N[C@@H](CCC(=O)NCC(=O)O)C(=O)O` [γ-glutamyl-glycine] was tested, and the “thin layer chromatography, ninhydrin” value was “Both GGCT and Botch release glycine by cleavage of γ-glutamyl-glycine”.
